± gives the uncertainty stated by the source.
Assay: xn = mol fraction of the nth substance listed

O=[N+]([O-])c1ccccc1O + Brc1ccccc1
viscosity [mPa·s], 101 kPa
Conditions	303.15 K	308.15 K	313.15 K	318.15 K	323.15 K
x1 = 0.602	1.884 ± 0.048	1.719 ± 0.043	1.576 ± 0.04	1.46 ± 0.037	1.35 ± 0.034
x1 = 0.8579	–	2.658 ± 0.068	2.366 ± 0.06	2.134 ± 0.054	1.934 ± 0.049

CCCCCCCCCO + C1CCCCC1
viscosity [mPa·s]
Conditions	293.15 K	303.15 K	313.15 K	323.15 K
100 kPa, x2 = 0.0822	9.85 ± 0.79	6.89 ± 0.55	4.93 ± 0.4	3.66 ± 0.29
100 kPa, x2 = 0.1616	8.5 ± 0.68	6 ± 0.48	4.32 ± 0.35	3.23 ± 0.26
100 kPa, x2 = 0.2413	7.2 ± 0.58	5.17 ± 0.42	3.76 ± 0.3	2.83 ± 0.23
100 kPa, x2 = 0.3502	5.63 ± 0.45	4.15 ± 0.33	3.05 ± 0.25	2.33 ± 0.19
100 kPa, x2 = 0.4404	4.51 ± 0.36	3.44 ± 0.28	2.54 ± 0.2	1.96 ± 0.16
100 kPa, x2 = 0.5611	3.29 ± 0.26	2.63 ± 0.21	1.97 ± 0.16	1.56 ± 0.13
100 kPa, x2 = 0.6503	2.57 ± 0.21	2.13 ± 0.17	1.6 ± 0.1	1.3 ± 0.1
100 kPa, x2 = 0.7412	1.96 ± 0.16	1.68 ± 0.14	1.3 ± 0.1	1.08 ± 0.09
100 kPa, x2 = 0.8514	1.42 ± 0.11	1.26 ± 0.1	1.03 ± 0.08	0.86 ± 0.07
100 kPa, x2 = 0.9397	1.11 ± 0.09	0.97 ± 0.08	0.81 ± 0.07	0.7 ± 0.06
101.33 kPa, x1 = 0.105	–	1.068 ± 0.013	–	–
101.33 kPa, x1 = 0.2105	–	1.397 ± 0.017	–	–
101.33 kPa, x1 = 0.311	–	1.784 ± 0.021	–	–
101.33 kPa, x1 = 0.3969	–	2.186 ± 0.025	–	–
101.33 kPa, x1 = 0.4955	–	2.735 ± 0.031	–	–
101.33 kPa, x1 = 0.6055	–	3.462 ± 0.039	–	–
101.33 kPa, x1 = 0.6959	–	4.153 ± 0.047	–	–
101.33 kPa, x1 = 0.801	–	5.108 ± 0.057	–	–
101.33 kPa, x1 = 0.9054	–	6.215 ± 0.066	–	–

Cc1cccc2ccccc12 + CC1CCCCC1
viscosity [mPa·s], 100 kPa
Conditions	x1 = 0.125	x1 = 0.25	x1 = 0.375	x1 = 0.5	x1 = 0.625	x1 = 0.75	x1 = 0.875
303.15 K	0.715 ± 0.016	0.829 ± 0.019	0.972 ± 0.023	1.13 ± 0.027	1.37 ± 0.033	1.67 ± 0.04	2.06 ± 0.051
323.15 K	0.559 ± 0.013	0.64 ± 0.015	0.733 ± 0.017	0.853 ± 0.02	1.01 ± 0.024	1.2 ± 0.029	1.44 ± 0.036

CC(=O)N(C)C + CC#N
303.15 K, 101.33 kPa
Conditions	viscosity [mPa·s]
x2 = 0.0996	0.8371 ± 0.011
x2 = 0.2019	0.7966 ± 0.01
x2 = 0.2938	0.7487 ± 0.0097
x2 = 0.3974	0.7001 ± 0.0092
x2 = 0.497	0.6422 ± 0.0086
x2 = 0.5983	0.5843 ± 0.008
x2 = 0.7013	0.5199 ± 0.0073
x2 = 0.7983	0.4568 ± 0.0066
x2 = 0.9001	0.3878 ± 0.0058

CCC1CCCCC1 + CC(=O)CC(C)C
298.15 K, 101 kPa
Conditions	viscosity [mPa·s]
x2 = 0.1314	0.695 ± 0.007
x2 = 0.2549	0.645 ± 0.007
x2 = 0.3669	0.621 ± 0.006
x2 = 0.473	0.6 ± 0.006
x2 = 0.5856	0.583 ± 0.006
x2 = 0.7041	0.567 ± 0.006
x2 = 0.8091	0.556 ± 0.006
x2 = 0.9079	0.547 ± 0.006

CC(=O)N(C)C + CC(C)O
303.15 K, 101 kPa
Conditions	viscosity [mPa·s]
x1 = 0.1016	1.428 ± 0.013
x1 = 0.2027	1.222 ± 0.012
x1 = 0.3046	1.1 ± 0.011
x1 = 0.5032	0.994 ± 0.01
x1 = 0.6012	0.945 ± 0.01
x1 = 0.7055	0.939 ± 0.01
x1 = 0.906	0.884 ± 0.01

CC(=O)N1CCOCC1 + CC(C)O
viscosity [mPa·s], 101 kPa
Conditions	293.15 K	303.15 K	313.15 K	323.15 K
x1 = 0.0522	3.709 ± 0.083	2.981 ± 0.067	2.398 ± 0.055	2.058 ± 0.048
x1 = 0.1274	4.822 ± 0.11	4.027 ± 0.09	3.33 ± 0.075	2.819 ± 0.064
x1 = 0.2153	6.051 ± 0.13	5.18 ± 0.11	4.35 ± 0.097	3.754 ± 0.084
x1 = 0.2813	6.792 ± 0.14	5.862 ± 0.12	4.934 ± 0.11	4.274 ± 0.096
x1 = 0.3169	7.055 ± 0.14	6.069 ± 0.13	5.112 ± 0.11	4.418 ± 0.099
x1 = 0.3909	7.575 ± 0.15	6.548 ± 0.14	5.454 ± 0.12	4.686 ± 0.11
x1 = 0.4569	7.956 ± 0.16	6.872 ± 0.14	5.68 ± 0.12	4.85 ± 0.11
x1 = 0.4999	8.044 ± 0.16	6.922 ± 0.14	5.666 ± 0.12	4.794 ± 0.11
x1 = 0.5444	8.301 ± 0.17	7.14 ± 0.15	5.816 ± 0.13	4.903 ± 0.11
x1 = 0.6113	8.421 ± 0.17	7.202 ± 0.15	5.778 ± 0.13	4.799 ± 0.11
x1 = 0.6342	8.356 ± 0.17	7.116 ± 0.15	5.656 ± 0.13	4.656 ± 0.11
x1 = 0.6888	8.479 ± 0.17	7.191 ± 0.15	5.651 ± 0.13	4.597 ± 0.11
x1 = 0.7522	8.573 ± 0.18	7.229 ± 0.15	5.593 ± 0.13	4.478 ± 0.1
x1 = 0.7976	8.575 ± 0.18	7.191 ± 0.15	5.487 ± 0.12	4.328 ± 0.1
x1 = 0.8555	8.612 ± 0.18	7.176 ± 0.16	5.389 ± 0.12	4.174 ± 0.099
x1 = 0.9231	8.559 ± 0.18	7.065 ± 0.15	5.172 ± 0.12	3.892 ± 0.093
x2 = 0.0188	8.649 ± 0.19	7.104 ± 0.16	5.163 ± 0.12	3.893 ± 0.094

Cc1cccc2ccccc12 + CC(CC(C)(C)C)CC(C)(C)CC(C)(C)C
viscosity [mPa·s], 100 kPa
Conditions	x1 = 0.125	x1 = 0.25	x1 = 0.375	x1 = 0.5	x1 = 0.625	x1 = 0.75	x1 = 0.875
293.15 K	3.46 ± 0.22	3.24 ± 0.21	3.09 ± 0.2	2.97 ± 0.19	2.88 ± 0.19	2.9 ± 0.19	3.02 ± 0.2
303.15 K	2.75 ± 0.18	2.61 ± 0.17	2.47 ± 0.16	2.38 ± 0.15	2.32 ± 0.15	2.33 ± 0.15	2.4 ± 0.16
313.15 K	2.29 ± 0.15	2.14 ± 0.14	2.02 ± 0.13	1.95 ± 0.13	1.9 ± 0.12	1.91 ± 0.12	1.97 ± 0.13
323.15 K	1.86 ± 0.12	1.76 ± 0.11	1.7 ± 0.11	1.64 ± 0.1	1.6 ± 0.1	1.61 ± 0.1	1.64 ± 0.1

CCCCCCCCCO + CCC(C)=O
viscosity [mPa·s], 100 kPa
Conditions	x2 = 0.0834	x2 = 0.1589	x2 = 0.2407	x2 = 0.3508	x2 = 0.4403	x2 = 0.5589	x2 = 0.6502	x2 = 0.7393	x2 = 0.8501	x2 = 0.9393
293.15 K	8.68 ± 0.87	6.91 ± 0.69	5.59 ± 0.56	4.29 ± 0.43	3.39 ± 0.34	2.38 ± 0.24	1.83 ± 0.18	1.33 ± 0.13	0.78 ± 0.08	0.56 ± 0.06
303.15 K	6.38 ± 0.64	5.06 ± 0.51	3.89 ± 0.39	2.91 ± 0.29	2.25 ± 0.23	1.52 ± 0.15	0.98 ± 0.1	0.76 ± 0.08	0.53 ± 0.05	0.46 ± 0.05
313.15 K	4.39 ± 0.44	3.52 ± 0.35	2.8 ± 0.3	2.07 ± 0.21	1.61 ± 0.16	1.21 ± 0.12	0.98 ± 0.1	0.78 ± 0.08	0.55 ± 0.06	0.42 ± 0.04
323.15 K	3.27 ± 0.33	2.67 ± 0.27	2.14 ± 0.21	1.56 ± 0.16	1.25 ± 0.13	0.92 ± 0.09	0.72 ± 0.07	0.59 ± 0.06	0.47 ± 0.05	0.38 ± 0.04
